What was measured:
[1] = tested on: MDA-MB-231 cells; test: Colony formation assay; assay type: cell-based, human; details: colonies grown 10 days
Procedure: Colony formation assay. The inhibitory effect of Sal-B was further confirmed by colony formation assay. The colony formation assay was performed as described previously (Hao Y, et al., “Enforced expression of miR-101 inhibits prostate cancer cell growth by modulating the COX-2 pathway in vivo,” Cancer Prev Res (Phila). 2011; 4: 1073-1083). Briefly, MDA cells were seeded at a density of 300 cells per well in 6-well plates, cultured overnight, and then treated with Sal-B at different concentrations (1, 10, 20, 50, and 100 μM) for 24 hours. Following treatment, the old medium containing Sal-B was replaced with fresh drug-free media and the cells were allowed to grow for 10 days to permit colony formation from viable clonogenic cells. Colonies were stained with 0.1% trypan blue in 50% ethanol and were counted manually under microscopy with a grid printed on a transparent plastic sheet to keep track of colonies counted. The colonies containing more than 50 cells were considered to represent a viable clonogenic cell. The experiment was completed in triplicate for each treatment.

[2] = Body weight and side effects of treated mice; assay type: in vivo; details: applicant's previous studies
Procedure: (§1) Human tumor xenografts in athymic nude mice. […] The animal protocol was approved by the Howard University Animal Care and Use Committee. Four-week-old female athymic nude mice (Nu/Nu) were obtained from Harlan Sprague Dawley (Indianapolis, IN). All mice were provided the Harlan Teklad #2018 Global 18% protein rodent diet and water ad libitum. Mice were housed in temperature-controlled rooms (74±2° F.) with a 12-hour alternating light-dark cycle. MDA cells (3×10^6/50 μL/spot) were subcutaneously injected into the both sides of lower back of mice using a 27-gauge needle. On day 10 after cell implantation, the mice with tumors (˜5 mm in diameter) were randomly divided into Sal-B treated, doxorubicin treated, and untreated groups (five mice per group), and were administrated Sal-B (80 mg/kg, three times per week), doxorubicin (4 mg/kg, every four weeks) and 0.9% saline (50 μl, three times per week), respectively, by intraperitoneal injection for a total of 37 days. […] All mice were sacrificed on day 37.

[3] = tested on: MDA tumor xenografts; test: Human tumor xenografts in athymic nude mice, tumor weight; assay type: in vivo; details: Sal-B 80 mg/kg three times per week, intraperitoneal; day 37; mean±SD; untreated control 0.81±0.12 g
Procedure: as §1

[4] = tested on: GM3 synthase; test: Western blot of GM3 synthase expression in MDA and MCF-7 cells; assay type: cell-based, human
Procedure: (§2) The immunohistochemical results were consistent with those from Western blotting (FIG. 7, panel A). Western blot analysis was used to determine the expression of apoptosis-related proteins Bcl-XL, survivin, caspase-3 and caspase-8 (FIG. 7, panel A). β-actin was used as an internal control for Western blotting. The MCD-7 and MDA cells were treated with Sal-B (50 μM and 100 μM) and doxorubicin (0.1 μM and 1 μM), respectively, for 24 hours. Proteins were extracted from the cells with RIPA lysis buffer (Santa Cruz Biotechnology, Santa Cruz, CA) and the protein concentrations were quantified with Bio-Rad protein quantification kit. Whole-cell proteins were separated on 8% SDS-polyacrylamide gel, transferred to the polyvinylidene difluoride membrane (Bio-Rad), and then probed with the indicated primary antibodies overnight at 4° C. Washed blots were then incubated with horseradish peroxidase-conjugated anti-rabbit, anti-mouse, or anti-goat antibody (Santa Cruz Biotechnology), respectively, for one hour at room temperature. Blots were developed and visualized with ECL detection system (Bio-Rad).
To understand the mechanism underlying increased ceramide accumulation, the expression levels of GCS and GM3 synthase were measured by Western blot analysis in MDA and MCF-7 cells treated by various concentrations of Sal-B (FIG. 8). […]

[5] = tested on: Bcl-xL; test: Western blot of Bcl-xL expression in MDA and MCF-7 cells; assay type: cell-based, human; details: Sal-B 50 μM and 100 μM, 24 hours
Procedure: as §2

[6] = tested on: p-ERK; test: Western blot of p-ERK expression in MCF-7 and MDA cells; assay type: cell-based, human; details: different concentrations of Sal-B, 24 hours
Procedure: as §2
Because phospho-p44/42 extracellular signal-regulated kinases (p-ERK) is a key enzyme in the MAPK signal pathway, the expression of p-ERK was also investigated in MCF-7 and MDA cells following exposure to different concentrations of Sal-B for 24 hours.

[7] = tested on: MDA tumor xenografts; test: TUNEL assay of apoptotic cells in MDA tumor xenografts; assay type: in vivo, athymic nude mice; details: Sal-B 80 mg/kg three times per week; untreated tumors 3.1±1.8; P<0.05
Procedure: Human tumor xenografts in athymic nude mice. […] The animal protocol was approved by the Howard University Animal Care and Use Committee. Four-week-old female athymic nude mice (Nu/Nu) were obtained from Harlan Sprague Dawley (Indianapolis, IN). All mice were provided the Harlan Teklad #2018 Global 18% protein rodent diet and water ad libitum. Mice were housed in temperature-controlled rooms (74±2° F.) with a 12-hour alternating light-dark cycle. MDA cells (3×10^6/50 μL/spot) were subcutaneously injected into the both sides of lower back of mice using a 27-gauge needle. […]
Apoptotic cells in MDA tumor xenografts were also analyzed by a terminal deoxynucleotidyl transferase-mediated dUTP nick end labeling (TUNEL) assay using the TdT-FragEL DNA Fragmentation Detection Kit (EMD Millipore, Burlington, MA) as previously described (Li H, et al., “Cellular uptake and anticancer activity of salvianolic acid B phospholipid complex loaded nanoparticles in head and neck cancer and precancer cells,” Colloids Surf B Biointerfaces. 2016; 147: 65-72). […]

O=C(/C=C/c1ccc(O)c2c1[C@H](C(=O)O[C@H](Cc1ccc(O)c(O)c1)C(=O)O)[C@@H](c1ccc(O)c(O)c1)O2)O[C@H](Cc1ccc(O)c(O)c1)C(=O)O [Sal-B, Salvianolic acid B]
colony formation capability relative to control cells ([1]; Sal-B 1 μM for 24 hours): approximately 69% | colony formation capability ([1]; Sal-B 100 μM for 24 hours): complete inhibition | side effects ([2]; Sal-B 80 mg/kg three times per week): no obvious side effects | side effects at higher dosage ([2]; Sal-B dosage higher than 80 mg/kg three times per week): weight loss in some mice | average tumor weight [3]: 0.26 ± 0.06 g | expression of GM3 synthase (normalized to β-actin) ([4]; MCF-7 cells, Sal-B 100 μM): significantly diminished | expression of GM3 synthase (normalized to β-actin) ([4]; MDA cells, Sal-B at both 50 μM and 100 μM): significantly diminished | Bcl-xL protein expression ([5]; MCF-7 cells): downregulated | Bcl-xL protein expression ([5]; MDA cells): downregulated | p-ERK expression (normalized to β-actin) ([6]; MCF-7 cells): down-regulated | p-ERK expression (normalized to β-actin) ([6]; MDA cells): down-regulated | number of apoptotic cells (TUNEL) [7]: 12.2±3.2
